Key:
human 5-HT1A receptor = biological target: T1, human 5-HT1A receptor (Homo sapiens, UniProt P08908); assay: [35S]GTPγS assay of functional activity at the 5-HT1A receptor; format: biochemical; details: membranes from CHO cells expressing human 5-HT1A receptor; for 5-HT1A stimulated [35S]GTPγS binding intrinsic effect: % activity of serotonin; for EC50: read-out: 5-HT1A stimulated [35S]GTPγS binding EC50 value
T1 construct: expressed in transfected cells
T1 sequence (P08908 1-422): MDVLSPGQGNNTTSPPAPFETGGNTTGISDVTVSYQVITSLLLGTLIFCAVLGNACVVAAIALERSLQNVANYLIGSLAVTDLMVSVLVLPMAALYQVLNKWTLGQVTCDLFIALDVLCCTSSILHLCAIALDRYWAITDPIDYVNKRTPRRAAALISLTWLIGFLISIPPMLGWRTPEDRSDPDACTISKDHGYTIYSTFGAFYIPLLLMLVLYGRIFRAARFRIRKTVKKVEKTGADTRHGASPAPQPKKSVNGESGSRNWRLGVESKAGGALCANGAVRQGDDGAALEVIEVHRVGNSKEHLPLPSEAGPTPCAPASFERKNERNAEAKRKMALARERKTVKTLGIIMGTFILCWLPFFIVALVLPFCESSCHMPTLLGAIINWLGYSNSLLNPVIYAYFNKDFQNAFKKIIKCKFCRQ
Protocol: In detail, membranes from CHO (Chinese hamster ovary) cells stably expressing the human 5-HT1A receptor were stimulated with an increasing concentration of test compounds used in a range of subnanomolar to micromolar concentrations in the presence of radioactive [^35S]GTPγ. The amount of bound radioactivity which indicates the amount of stimulation of the receptor was determined after transferring the membranes to filters by scintillation counting. Dose response correlations could be derived and the particular stimulation of the receptor was compared to the maximum effect of the reference compound and physiological ligand serotonin.
Table 2: Intrinsic activities of the compounds of this invention at the serotonin 5-HT1A receptor determined in a [35S]GTPγS assay

[1] = cited from Maurel et al, reference (14); cited from earlier work
human D2long, D2short = human D2long, D2short (Homo sapiens, UniProt P14416); assay: biochemical; format: binding; details: CHO cell membranes, [3H]spiperone; mean of two to five experiments in triplicate; read-out: Ki D2
Sequence of human D2long, D2short (P14416 whole entry): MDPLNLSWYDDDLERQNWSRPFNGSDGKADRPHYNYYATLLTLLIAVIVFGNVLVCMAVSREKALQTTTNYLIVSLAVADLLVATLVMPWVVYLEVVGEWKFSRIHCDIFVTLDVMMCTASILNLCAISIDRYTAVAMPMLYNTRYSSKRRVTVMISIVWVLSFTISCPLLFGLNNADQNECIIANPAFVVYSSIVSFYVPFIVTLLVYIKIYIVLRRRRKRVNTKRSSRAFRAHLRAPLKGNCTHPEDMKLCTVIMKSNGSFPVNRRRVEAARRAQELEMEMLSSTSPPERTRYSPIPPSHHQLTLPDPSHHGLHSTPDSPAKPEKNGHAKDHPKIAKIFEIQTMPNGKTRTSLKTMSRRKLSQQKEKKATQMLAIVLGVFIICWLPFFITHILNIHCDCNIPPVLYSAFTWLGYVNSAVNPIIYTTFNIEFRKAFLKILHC

human D3 = human D3 (Homo sapiens, UniProt P35462); assay: radioligand binding assay, dopamine D3 receptor, [3H]spiperone; details: CHO cell membranes, mean of two to five experiments in triplicate, read-out: Ki D3
Sequence of human D3 (P35462 whole entry): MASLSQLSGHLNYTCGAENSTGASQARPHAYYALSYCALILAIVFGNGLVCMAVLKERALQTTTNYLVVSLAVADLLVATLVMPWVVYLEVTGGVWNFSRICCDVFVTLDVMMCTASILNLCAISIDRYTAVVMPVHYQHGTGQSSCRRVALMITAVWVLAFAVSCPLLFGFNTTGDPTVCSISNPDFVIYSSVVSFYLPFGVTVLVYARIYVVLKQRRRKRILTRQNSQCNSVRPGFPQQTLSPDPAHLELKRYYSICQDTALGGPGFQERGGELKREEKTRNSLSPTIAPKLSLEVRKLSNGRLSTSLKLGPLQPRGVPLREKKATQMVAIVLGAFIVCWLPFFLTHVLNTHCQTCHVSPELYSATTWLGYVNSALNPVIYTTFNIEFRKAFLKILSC

5-HT1A = biological target: T2, 5-HT1A (Sus scrofa, UniProt A0A4X1UTF5); assay: radioligand binding assay, serotonin 5-HT1A receptor, [3H]WAY 100635; details: porcine cortex membranes, mean of two to five experiments in triplicate, read-out: Ki 5-HT1a
T2 construct: membrane preparations from porcine cortex; from tissue; host or cells: porcine cortex
T2 sequence (A0A4X1UTF5 1-422): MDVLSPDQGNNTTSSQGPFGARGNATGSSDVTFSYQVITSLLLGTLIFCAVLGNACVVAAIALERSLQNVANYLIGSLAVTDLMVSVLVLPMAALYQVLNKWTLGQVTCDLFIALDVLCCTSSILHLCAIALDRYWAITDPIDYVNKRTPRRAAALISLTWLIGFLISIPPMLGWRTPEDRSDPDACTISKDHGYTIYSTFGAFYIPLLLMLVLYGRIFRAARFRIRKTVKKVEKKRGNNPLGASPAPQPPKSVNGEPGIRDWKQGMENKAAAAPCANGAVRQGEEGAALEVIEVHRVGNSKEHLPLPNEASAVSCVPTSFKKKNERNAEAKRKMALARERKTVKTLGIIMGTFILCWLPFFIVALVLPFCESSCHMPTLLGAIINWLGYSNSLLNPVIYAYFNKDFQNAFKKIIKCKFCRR
Summary of the method: (§1)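 Porcine cortical membranes incubated with [3H]prazosin for alpha-1 or [3H]WAY 100635 for 5-HT1A. Ki values in nM are means of two to five experiments, each in triplicate.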

5-HT2 = biological target: T3, 5-HT2 (Sus scrofa, UniProt P50129); assay: radioligand binding assay, serotonin 5-HT2 receptor, [3H]ketanserin; set-up: species or system porcine; details: porcine cortex membranes, [3H]ketanserin; mean of two to five experiments in triplicate; read-out: Ki 5-HT2
T3 construct: membrane preparations from porcine cortex; from tissue; host or cells: porcine cortex
T3 sequence (P50129 whole entry): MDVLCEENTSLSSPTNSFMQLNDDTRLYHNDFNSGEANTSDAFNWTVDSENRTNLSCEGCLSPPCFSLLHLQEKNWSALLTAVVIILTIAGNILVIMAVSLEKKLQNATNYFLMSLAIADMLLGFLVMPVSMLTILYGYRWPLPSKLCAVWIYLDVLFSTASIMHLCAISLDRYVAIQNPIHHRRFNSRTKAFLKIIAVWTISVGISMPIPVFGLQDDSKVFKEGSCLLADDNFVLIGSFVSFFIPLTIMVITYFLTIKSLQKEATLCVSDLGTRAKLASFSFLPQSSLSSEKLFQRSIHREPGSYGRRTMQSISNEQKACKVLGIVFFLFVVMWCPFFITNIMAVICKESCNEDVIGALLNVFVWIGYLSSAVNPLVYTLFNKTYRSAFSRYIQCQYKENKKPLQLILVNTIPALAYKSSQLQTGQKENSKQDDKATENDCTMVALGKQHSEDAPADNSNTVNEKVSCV

human D4.4 = biological target: T4, human D4.4 (Homo sapiens, UniProt P21917); assay: radioligand binding assay, dopamine D4.4 receptor, [3H]spiperone; details: CHO cell membranes, mean of two to five experiments in triplicate, read-out: Ki D4.4
T4 sequence (P21917 1-419): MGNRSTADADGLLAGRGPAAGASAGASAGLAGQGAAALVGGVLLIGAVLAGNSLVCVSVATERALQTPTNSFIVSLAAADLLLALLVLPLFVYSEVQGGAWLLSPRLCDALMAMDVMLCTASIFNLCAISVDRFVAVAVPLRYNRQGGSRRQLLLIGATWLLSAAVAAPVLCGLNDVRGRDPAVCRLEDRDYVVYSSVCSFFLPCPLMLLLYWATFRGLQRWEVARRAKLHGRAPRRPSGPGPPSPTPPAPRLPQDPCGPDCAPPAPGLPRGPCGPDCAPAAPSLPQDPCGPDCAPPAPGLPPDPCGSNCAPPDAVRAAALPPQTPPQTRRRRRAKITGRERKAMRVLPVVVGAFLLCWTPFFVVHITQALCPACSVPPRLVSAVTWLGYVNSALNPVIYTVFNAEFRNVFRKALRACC

dopamine D1 receptor = biological target: T5, dopamine D1 receptor (Sus scrofa, UniProt P50130); assay: radioligand binding assay, dopamine D1 receptor, [3H]SCH 23390; details: porcine striatum membranes, mean of two to five experiments in triplicate, read-out: Ki D1
T5 construct: native membrane preparations from porcine striatum; from tissue; host or cells: porcine striatum
T5 sequence (P50130 whole entry): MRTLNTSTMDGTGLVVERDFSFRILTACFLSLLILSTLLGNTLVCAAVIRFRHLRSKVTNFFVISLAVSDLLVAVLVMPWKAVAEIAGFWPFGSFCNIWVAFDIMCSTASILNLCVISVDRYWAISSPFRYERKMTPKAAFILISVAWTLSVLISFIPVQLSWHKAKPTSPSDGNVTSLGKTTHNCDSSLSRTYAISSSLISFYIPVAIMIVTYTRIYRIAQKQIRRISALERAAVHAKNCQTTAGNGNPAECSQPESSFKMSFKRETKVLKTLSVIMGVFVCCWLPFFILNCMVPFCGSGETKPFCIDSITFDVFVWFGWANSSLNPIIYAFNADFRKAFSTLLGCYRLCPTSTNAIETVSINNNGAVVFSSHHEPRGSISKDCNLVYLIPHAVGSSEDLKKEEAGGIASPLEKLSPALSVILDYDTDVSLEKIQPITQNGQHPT

alpha-1 = assay: radioligand binding assay, adrenergic alpha-1 receptor, [3H]prazosin; details: porcine cortical membranes, mean of two to five experiments in triplicate, read-out: Ki alpha1
Summary of the method: as §1

Row | Structure (SMILES) | 5-HT1A stimulated [35S]GTPγS binding intrinsic effect (human 5-HT1A receptor) | half-life elimination from plasma [1] [h] | EC50 (human 5-HT1A receptor) [µM] | Ki (human D2long, D2short) [µM] | Ki (human D3) [µM] | Ki (5-HT1A) [µM] | Ki (5-HT2) [µM] | Ki (human D4.4) [µM] | Ki (dopamine D1 receptor) [µM] | Ki (alpha-1) [µM]
1 | Cc1ccc(CNCC2(F)CCN(C(=O)c3ccc(F)c(Cl)c3)CC2)nc1 [Example F13640, reference compound] | D (D=full agonist (>75%)) | 35 |  |  |  |  |  |  |  | 
2 | Cc1ccc(CNCC2(F)CCN(C(=O)c3cccs3)CC2)nc1 [Example E1] | D (D=full agonist (>75%)) |  | < 0.05 | > 5 | > 5 | < 0.05 | > 5 | > 5 | > 5 | > 5
3 | Cc1ccc(CNCC2(F)CCN(C(=O)c3ccc(Cl)s3)CC2)nc1 [Example E4, 5-Chlorothien-2-yl-[4-fluoro-4-[[(5-methylpyridin-2-ylmethyl)amino]methyl]-piperidin-1-yl]-methanone] | D (D=full agonist (>75%)) |  | < 0.05 | > 5 | > 5 | < 0.05 | > 5 | 0.501 to 5 | > 5 | 0.501 to 5
4 | Cc1ccc(CNCC2(F)CCN(C(=O)c3ccsc3)CC2)nc1 [Example E18, [4-Fluoro-4-[[(5-methylpyridin-2-ylmethyl)amino]methyl]piperidin-1-yl]-thien-3-yl-methanone] | D (D=full agonist (>75%)) |  | < 0.05 | > 5 | > 5 | < 0.05 | > 5 | > 5 | > 5 | > 5

From patent EP2058306A1, “Heteroaryl-substituted 2-pyridinyl-methylamine derivatives” (SCHWARZ PHARMA AG, priority 2007, dated 2009)
